ChEMBL document CHEMBL3774308, “KATching-Up on Small Molecule Modulators of Lysine Acetyltransferases” (J Med Chem, 2016)
Values belong to the compound of their own block, whether it stands above or below them.

What was measured:
[1] = target: T1, Histone acetyltransferase p300 (Homo sapiens, UniProt Q09472); assay: Inhibition of full length recombinant His6-tagged p300 (unknown origin) expressed in baculovirus expression system using histone substrate after 10 mins by liquid scintillation counting method in presence of [3H]acetyl-CoA
[2] = target: T2, Histone acetyltransferase KAT2B (Homo sapiens, UniProt Q92831); assay: Inhibition of recombinant PCAF (unknown origin) expressed in baculovirus expression system using histone substrate after 10 mins by liquid scintillation counting method in presence of [3H]acetyl-CoA
Target sequence in this assay (Q92831 whole entry, the tested form may be a part): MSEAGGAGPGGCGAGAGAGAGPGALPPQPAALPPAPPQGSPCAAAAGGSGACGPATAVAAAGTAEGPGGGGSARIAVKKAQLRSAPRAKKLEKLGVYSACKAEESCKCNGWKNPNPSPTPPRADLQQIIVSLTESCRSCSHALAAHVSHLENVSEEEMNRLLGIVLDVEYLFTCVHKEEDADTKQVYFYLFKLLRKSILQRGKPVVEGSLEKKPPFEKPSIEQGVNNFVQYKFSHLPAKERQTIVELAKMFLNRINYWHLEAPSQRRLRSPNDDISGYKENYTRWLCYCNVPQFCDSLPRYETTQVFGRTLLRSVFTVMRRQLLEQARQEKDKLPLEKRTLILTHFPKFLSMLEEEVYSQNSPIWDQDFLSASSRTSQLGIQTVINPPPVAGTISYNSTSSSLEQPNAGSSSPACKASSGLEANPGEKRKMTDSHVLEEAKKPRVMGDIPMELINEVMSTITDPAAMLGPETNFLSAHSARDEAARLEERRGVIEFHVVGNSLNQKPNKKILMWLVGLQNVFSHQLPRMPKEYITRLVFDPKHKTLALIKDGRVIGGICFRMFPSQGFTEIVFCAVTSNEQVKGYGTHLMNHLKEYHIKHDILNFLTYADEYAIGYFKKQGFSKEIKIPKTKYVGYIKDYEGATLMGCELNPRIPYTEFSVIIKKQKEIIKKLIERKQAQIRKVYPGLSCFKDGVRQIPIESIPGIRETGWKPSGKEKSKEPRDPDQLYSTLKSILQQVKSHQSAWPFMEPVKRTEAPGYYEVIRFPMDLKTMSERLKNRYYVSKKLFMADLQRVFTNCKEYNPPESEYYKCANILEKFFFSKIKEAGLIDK

[3] = target: T1, Histone acetyltransferase p300; assay: Inhibition of human recombinant C-terminal GST-tagged p300 (1195 to 1673 residues) expressed in competent Escherichia coli DH5alpha cells using histone substrate after 30 mins by scintillation counting method in presence of [3H]acetyl-CoA
[4] = target: CREB-binding protein (Homo sapiens, UniProt Q92793); assay: Inhibition of recombinant GST-tagged CBP (unknown origin) using histone H4 peptide substrate assessed as reduction in NADH formation by spectrophotometric analysis
[5] = target: T1, Histone acetyltransferase p300; assay: Inhibition of recombinant GST-tagged p300 (unknown origin) using histone H4 peptide substrate assessed as reduction in NADH formation by spectrophotometric analysis
[6] = target: T3, Histone acetyltransferase KAT5 (Homo sapiens, UniProt Q92993); assay: Inhibition of recombinant TIP60 (unknown origin) using histone H4 peptide substrate assessed as reduction in NADH formation by spectrophotometric analysis
Target sequence in this assay (Q92993 whole entry): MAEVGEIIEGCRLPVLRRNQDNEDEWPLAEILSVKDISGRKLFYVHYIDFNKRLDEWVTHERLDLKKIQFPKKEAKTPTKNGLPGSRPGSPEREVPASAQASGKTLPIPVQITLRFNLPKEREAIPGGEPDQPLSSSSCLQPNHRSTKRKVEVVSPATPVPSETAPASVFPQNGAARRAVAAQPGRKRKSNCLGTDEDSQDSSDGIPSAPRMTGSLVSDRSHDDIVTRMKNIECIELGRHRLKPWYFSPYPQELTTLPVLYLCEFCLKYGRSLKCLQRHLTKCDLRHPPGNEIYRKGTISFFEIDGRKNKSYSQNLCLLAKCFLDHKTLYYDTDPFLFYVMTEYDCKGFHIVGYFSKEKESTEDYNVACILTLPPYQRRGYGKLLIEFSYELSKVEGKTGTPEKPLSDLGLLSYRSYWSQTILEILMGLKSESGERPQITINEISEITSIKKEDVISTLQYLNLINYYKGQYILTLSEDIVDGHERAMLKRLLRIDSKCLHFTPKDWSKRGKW

[7] = target: T2, Histone acetyltransferase KAT2B; assay: Inhibition of recombinant PCAF (unknown origin) using histone H4 peptide substrate assessed as reduction in NADH formation by spectrophotometric analysis
Target sequence in this assay (Q92831 whole entry, the tested form may be a part): as the sequence (Q92831 whole entry, the tested form may be a part) above

[8] = target: T3, Histone acetyltransferase KAT5; assay: Inhibition of recombinant human GFP-tagged TIP60 expressed in chicken embryo DT40 cells using histone substrate at 500 uM incubated for 1 hr followed by ionizing radiation treatment by immunosorbent gel assay relative to control; assay type: cell-based
Target sequence in this assay (Q92993 whole entry, looked up): as the sequence (Q92993 whole entry) above

[9] = target: T2, Histone acetyltransferase KAT2B; assay: Inhibition of recombinant human PCAF catalytic domain (492 to 658 residues) expressed in Escherichia coli using histone H3 (5 to 23 residues) as substrate at 800 uM after 1 hr by liquid scintillation counting method in presence of [3H]acetyl-CoA relative to control
Target sequence in this assay (Q92831 whole entry, looked up, the tested form may be a part): as the sequence (Q92831 whole entry, the tested form may be a part) above

[10] = target: Histone acetyltransferase KAT2A (Homo sapiens, UniProt Q92830); assay: Inhibition of recombinant human GCN5 catalytic domain (497 to 663 residues) expressed in Escherichia coli using histone H3 (5 to 23 residues) as substrate at 800 uM after 1 hr by liquid scintillation counting method in presence of [3H]acetyl-CoA relative to control
[11] = target: T1, Histone acetyltransferase p300; assay: Inhibition of recombinant p300 catalytic domain (unknown origin) using N-terminal histone H3 substrate at 52 uM by orthogonal fluorescence assay in presence of [3H]acetyl-CoA relative to control
[12] = target: T1, Histone acetyltransferase p300; assay: Inhibition of recombinant p300 catalytic domain (unknown origin) using N-terminal histone H3 substrate by radiometric filter binding assay in presence of [3H]acetyl-CoA
[13] = target: T2, Histone acetyltransferase KAT2B; assay: Inhibition of PCAF (unknown origin) using H4-15 peptide substrate at 10 uM incubated for 10 mins by radiometric filter binding assay in presence of [14C]acetyl-CoA relative to control
Target sequence in this assay (Q92831 whole entry, looked up, the tested form may be a part): as the sequence (Q92831 whole entry, the tested form may be a part) above

[14] = target: Histone acetyltransferase KAT6A (Homo sapiens) (UniProt Q92794); assay: Inhibition of human MOZ using histone H3 substrate at 10 uM incubated for 2 to 4 mins by SDS-PAGE based autoradiography in presence of [14C]acetyl-CoA relative to control
[15] = test system: Saccharomyces cerevisiae; assay: Inhibition of yeast GCN5 using histone H3 substrate at 10 uM incubated for 2 to 4 mins by SDS-PAGE based autoradiography in presence of [14C]acetyl-CoA relative to control
[16] = test system: Saccharomyces cerevisiae; assay: Inhibition of yeast RTT109 using histone H3 substrate at 10 uM incubated for 2 to 4 mins by SDS-PAGE based autoradiography in presence of [14C]acetyl-CoA relative to control
[17] = test system: Saccharomyces cerevisiae; assay: Inhibition of yeast YJW458 TAP-tagged SAS2 expressed in Escherichia coli BL21-CodonPlus(DE3)-RIL cells using histone H3 as substrate at 10 uM incubated for 2 to 4 mins by SDS-PAGE based autoradiography in presence of [14C]acetyl-CoA relative to control
[18] = target: T2, Histone acetyltransferase KAT2B; assay: Inhibition of full length recombinant human FLAG-tagged PCAF expressed in baculovirus expression system using histone substrate incubated for 10 mins by radiometric gel assay
Target sequence in this assay (Q92831 whole entry, the tested form may be a part): as above

[19] = target: T1, Histone acetyltransferase p300; assay: Inhibition of full length recombinant human FLAG-tagged p300 expressed in baculovirus expression system using histone substrate incubated for 10 mins by radiometric gel assay
[20] = target: T1, Histone acetyltransferase p300; assay: Inhibition of recombinant human p300 catalytic domain (1284 to 1673 residues) using histone H3 peptide substrate at 100 uM after 1 hr by liquid scintillation counting method in presence of [3H]acetyl-CoA relative to control
[21] = target: T2, Histone acetyltransferase KAT2B; assay: Inhibition of recombinant human PCAF catalytic domain (492 to 658 residues) using histone H3 peptide substrate at 100 uM after 1 hr by liquid scintillation counting method in presence of [3H]acetyl-CoA relative to control
Target sequence in this assay (Q92831 whole entry, looked up, the tested form may be a part): as the sequence (Q92831 whole entry, the tested form may be a part) above

T1 sequence (Q09472 whole entry): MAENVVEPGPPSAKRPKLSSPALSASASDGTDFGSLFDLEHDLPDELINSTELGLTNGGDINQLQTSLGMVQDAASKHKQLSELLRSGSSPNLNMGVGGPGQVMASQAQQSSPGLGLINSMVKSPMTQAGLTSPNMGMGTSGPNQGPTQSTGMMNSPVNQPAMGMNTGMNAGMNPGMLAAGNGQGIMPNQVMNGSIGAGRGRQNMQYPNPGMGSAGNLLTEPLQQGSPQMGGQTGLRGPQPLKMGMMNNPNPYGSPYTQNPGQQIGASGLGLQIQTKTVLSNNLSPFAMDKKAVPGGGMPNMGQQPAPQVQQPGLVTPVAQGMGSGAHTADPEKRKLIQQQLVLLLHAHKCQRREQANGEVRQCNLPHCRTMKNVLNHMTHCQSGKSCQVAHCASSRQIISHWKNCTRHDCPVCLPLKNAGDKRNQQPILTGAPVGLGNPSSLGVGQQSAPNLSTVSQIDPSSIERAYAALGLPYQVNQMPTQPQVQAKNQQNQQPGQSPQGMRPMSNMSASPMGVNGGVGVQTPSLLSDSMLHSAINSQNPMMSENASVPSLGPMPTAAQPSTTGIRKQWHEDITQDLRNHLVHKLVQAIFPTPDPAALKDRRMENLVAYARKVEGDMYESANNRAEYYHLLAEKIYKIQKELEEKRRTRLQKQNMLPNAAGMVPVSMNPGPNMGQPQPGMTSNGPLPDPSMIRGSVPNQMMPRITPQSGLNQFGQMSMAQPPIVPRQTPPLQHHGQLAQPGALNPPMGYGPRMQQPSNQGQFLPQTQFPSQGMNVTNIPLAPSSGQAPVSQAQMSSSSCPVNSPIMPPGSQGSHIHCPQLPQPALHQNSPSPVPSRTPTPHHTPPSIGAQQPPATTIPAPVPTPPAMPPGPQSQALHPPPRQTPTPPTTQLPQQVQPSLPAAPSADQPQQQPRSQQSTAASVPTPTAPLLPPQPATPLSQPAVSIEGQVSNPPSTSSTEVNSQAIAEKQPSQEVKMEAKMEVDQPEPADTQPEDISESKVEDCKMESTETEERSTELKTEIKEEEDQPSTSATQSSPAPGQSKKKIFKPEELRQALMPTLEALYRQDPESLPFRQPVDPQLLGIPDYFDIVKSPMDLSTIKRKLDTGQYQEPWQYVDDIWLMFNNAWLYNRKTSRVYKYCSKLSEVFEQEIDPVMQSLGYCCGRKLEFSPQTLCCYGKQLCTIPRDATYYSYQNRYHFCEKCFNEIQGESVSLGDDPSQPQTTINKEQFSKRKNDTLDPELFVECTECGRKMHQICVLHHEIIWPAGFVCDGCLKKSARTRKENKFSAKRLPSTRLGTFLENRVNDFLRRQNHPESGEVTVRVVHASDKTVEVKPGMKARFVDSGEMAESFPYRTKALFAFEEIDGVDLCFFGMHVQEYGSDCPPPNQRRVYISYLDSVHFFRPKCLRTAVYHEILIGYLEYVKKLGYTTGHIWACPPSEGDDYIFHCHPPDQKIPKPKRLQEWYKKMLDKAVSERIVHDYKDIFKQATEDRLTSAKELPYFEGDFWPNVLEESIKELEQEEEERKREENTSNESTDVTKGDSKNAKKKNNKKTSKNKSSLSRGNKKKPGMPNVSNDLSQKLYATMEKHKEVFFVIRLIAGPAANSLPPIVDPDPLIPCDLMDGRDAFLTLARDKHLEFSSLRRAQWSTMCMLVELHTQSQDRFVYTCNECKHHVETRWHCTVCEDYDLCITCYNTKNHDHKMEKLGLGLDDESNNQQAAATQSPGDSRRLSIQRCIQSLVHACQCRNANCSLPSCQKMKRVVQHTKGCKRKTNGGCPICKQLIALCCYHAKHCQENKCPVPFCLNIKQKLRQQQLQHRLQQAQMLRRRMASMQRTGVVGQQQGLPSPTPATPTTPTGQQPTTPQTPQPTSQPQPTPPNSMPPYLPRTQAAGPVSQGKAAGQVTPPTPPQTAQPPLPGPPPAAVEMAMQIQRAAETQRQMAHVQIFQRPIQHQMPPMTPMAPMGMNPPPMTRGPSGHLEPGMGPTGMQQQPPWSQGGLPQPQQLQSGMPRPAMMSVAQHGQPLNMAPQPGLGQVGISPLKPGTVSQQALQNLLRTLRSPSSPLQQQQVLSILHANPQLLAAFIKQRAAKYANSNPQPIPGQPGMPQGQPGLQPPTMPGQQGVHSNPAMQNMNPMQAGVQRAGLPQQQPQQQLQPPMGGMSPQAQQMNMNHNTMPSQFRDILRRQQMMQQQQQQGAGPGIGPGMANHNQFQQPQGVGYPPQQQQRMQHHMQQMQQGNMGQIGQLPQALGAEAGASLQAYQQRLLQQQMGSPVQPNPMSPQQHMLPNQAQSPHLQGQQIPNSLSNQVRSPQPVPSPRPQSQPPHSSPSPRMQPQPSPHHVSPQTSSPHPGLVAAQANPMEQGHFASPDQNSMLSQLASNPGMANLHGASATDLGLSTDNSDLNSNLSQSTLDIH
Histone acetyltransferase KAT2A, sequence (Q92830 2-837 limits assumed): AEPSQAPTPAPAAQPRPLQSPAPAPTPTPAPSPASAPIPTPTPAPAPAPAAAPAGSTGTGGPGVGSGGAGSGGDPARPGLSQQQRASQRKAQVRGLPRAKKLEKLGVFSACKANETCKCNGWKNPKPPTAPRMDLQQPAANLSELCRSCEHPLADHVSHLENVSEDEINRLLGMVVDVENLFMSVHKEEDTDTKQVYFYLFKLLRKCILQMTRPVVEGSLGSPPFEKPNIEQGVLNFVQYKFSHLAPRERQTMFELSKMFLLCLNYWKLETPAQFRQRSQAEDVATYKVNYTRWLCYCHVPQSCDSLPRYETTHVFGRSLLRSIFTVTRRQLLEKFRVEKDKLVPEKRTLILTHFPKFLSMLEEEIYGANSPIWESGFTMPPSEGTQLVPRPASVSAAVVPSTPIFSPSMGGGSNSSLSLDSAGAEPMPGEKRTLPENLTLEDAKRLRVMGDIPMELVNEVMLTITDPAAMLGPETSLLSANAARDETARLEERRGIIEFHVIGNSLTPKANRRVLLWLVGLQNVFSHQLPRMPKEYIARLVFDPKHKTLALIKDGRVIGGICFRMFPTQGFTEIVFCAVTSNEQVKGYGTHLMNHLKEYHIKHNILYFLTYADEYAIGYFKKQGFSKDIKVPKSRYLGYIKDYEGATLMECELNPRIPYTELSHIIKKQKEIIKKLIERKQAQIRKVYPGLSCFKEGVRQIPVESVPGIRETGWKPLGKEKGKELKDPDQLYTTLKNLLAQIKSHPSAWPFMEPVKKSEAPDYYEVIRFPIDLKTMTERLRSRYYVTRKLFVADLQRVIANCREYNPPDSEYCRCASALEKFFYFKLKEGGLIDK

IC50 [3]: 0.011 µM
Compound: N=C(N)NCCC[C@@H]1NC(=O)/C(=C/c2ccc(O)c(OCC[C@H](NC(=O)C[C@](O)(CC(=O)N[C@@H](CC(=O)O)C(=O)O)C(=O)O)C(=O)O)c2)NC1=O

inhibition [8]: 60%
Compound: O=C(O)Cn1nnc(-c2ccc(CN(CCCCOc3ccc(CN4CCCC4)cc3)CCc3ccccc3)cc2)n1

%max [11]: 60%
IC50 [12]: 4.15 µM
Compound: CCCCCCCCCCCCCCCc1cccc(O)c1C(=O)O [ANACARDIC ACID]

inhibition [20]: 81.2%
inhibition [21]: 37.5%
Compound: CCCCCCCCCCCCCCC=C(C(=O)OCC)C(=O)OCC

Further lines, the compound ahead of its results:

Compound: CC1=CC(=O)c2c(O)cccc2C1=O [PLUMBAGIN]
IC50 [1]: 20 µM
IC50 [2]: 50 µM

Compound: O=C(O[C@@H]1Cc2c(O)cc(O)cc2O[C@@H]1c1cc(O)c(O)c(O)c1)c1cc(O)c(O)c(O)c1 [EPIGALOCATECHIN GALLATE]
IC50 [4]: 50 µM
IC50 [5]: 30 µM
IC50 [6]: 70 µM
IC50 [7]: 60 µM

Compound: CC1CC/C(=N/Nc2nc(-c3ccc(Cl)cc3)cs2)C1 (stereo unspecified)
inhibition [9]: 40%
inhibition [10]: 40%

Compound: CC1=NN(c2ccc(C(=O)O)cc2)C(=O)/C1=C\c1ccc(-c2cc(C)c(C)cc2[N+](=O)[O-])o1
inhibition [13]: < 10%
inhibition [14]: < 10%
inhibition [15]: < 10%
inhibition [16]: < 10%
inhibition [17]: < 10%

Compound: CNC(=O)[C@H](C)NC(=O)[C@H](CCCNC(=N)N)NC(=O)[C@@H](NC(=O)[C@H](CCCCN)NC(=O)[C@H](CCC(N)=O)NC(=O)[C@@H](NC(=O)[C@H](C)NC(=O)[C@H](CCCNC(=N)N)NC(=O)[C@H](CC(C)C)NC(=O)[C@H](CO)NC(=O)[C@@H](NC(=O)CNC(=O)CNC(=O)N[C@H](CCCCNC(=O)CSCCNC(=O)CCNC(=O)[C@@H](O)C(C)(C)COP(=O)(O)OP(=O)(O)OC[C@@H]1O[C@H](n2cnc3c(N)ncnc32)[C@@H](O)[C@H]1OP(=O)(O)O)C(=O)N[C@@H](C)C(=O)N1CCC[C@@H]1C(=O)N[C@H](CCCNC(=N)N)C(=O)N[C@H](CCCCN)C(=O)N[C@H](CCC(N)=O)C(=O)N[C@@H](CC(C)C)C(=O)O)[C@H](C)O)[C@H](C)O)[C@H](C)O
IC50 [18]: 0.3 µM
IC50 [19]: 200 µM
